Source: patent US4225595A, “Piperazine phosphates and phosphonate insecticides” (priority 1979, dated 1980)
Values after ≈ are worked out from the molar mass of the structure shown.

How the values were obtained:
[1] = test system: Black Bean Aphid [Aphis fabae (Scop.)]; assay: Black Bean Aphid (BBA) plant spray assay, mortality after three days; assay type: in vivo; settings: spray on infested nasturtium plants
Text: (§1) Screening was initiated at a maximal concentration level believed to be injurious to the insect population. The initial level should not be understood as representing a maximum at which a viable test for insecticidal activity can be conducted. […]
(§2) Nasturtium plants, Tropaeolum sp., approximately five centimeters (cm) high were transplanted into sandy loam soil in three-inch clay pots. Each pot was infested with 25-50 black bean aphids of mixed ages. Twenty-four hours later the pots were sprayed to the point of run-off with 50--50 acetone-water solutions of the test compounds.
(§3) Mortality rates were recorded after the infested plants had been held in the greenhouse for three days. Test concentrations ranged from 0.05% down to that at which 50% mortality occurs. Green Peach Aphid [Myzus persicae (Sulzer)], (GPA)
(§4) A less than 50% mortality rate at the initial concentration is indicated by a "greater than" sign (>). An approximately 50% mortality rate is indicated by the initial concentration rate. Other results are the dilutions at which an LD50 was achieved.

[2] = test system: Green Peach Aphid [Myzus persicae (Sulzer)]; assay: Green Peach Aphid (GPA) plant spray assay; assay type: in vivo; settings: spray on infested radish plants, three days
Text: (§5) Screening was initiated at a maximal concentration level believed to be injurious to the insect population. The initial level should not be understood as representing a maximum at which a viable test for insecticidal activity can be conducted.
as §2, §3
(§6) The insecticidal properties were tested in the same manner as for black beam aphids with the substitution of the nasturtiums by radish plants, Rhaphanus sativus. German Cockroach [Blatella germanica (Linne)], (GR)--Direct Spray
as §4

[3] = test system: German Cockroach [Blatella germanica (Linne)]; assay: German Cockroach (GR) direct spray, mortality 7 days later; assay type: in vivo; settings: one-month-old nymphs, initial 0.1%
Description: as §5
(§7) Mobile insects, such as houseflies, German cockroaches, Lygus bugs, were contained for treatment in circular cardboard cages covered with cellophane on the bottom and tulle netting on the top.
as §6
(§8) Test compounds were diluted in a 50--50 acetonewater solution. Two cubic centimeters (cc) of the compound solutions were sprayed through a DeVilbiss type EGA hand spray gun into cages each containing 10 one-month-old German cockroach nymphs.
The percent mortality was recorded 7 days later. Test concentrations ranged from 0.1% down to that at which approximately 50% mortality occurs.
as §4

[4] = test system: Lygus Bug [Lygus hesperus (Knight)]; assay: Lygus Bug (LB) direct spray assay, mortality 48 hours later; assay type: in vivo; settings: adults, initial 0.05%
Description: as §5, §7, §8
Lygus Bug [Lygus hesperus (Knight)], (LB)--Direct Spray Assay
(§9) The species was treated in the same manner as the German cockroach. The cages contained one string beam pod and 10 adult Lygus bugs. The percent mortality was recorded 48 hours later. Test concentrations ranged from 0.05% down to that at which approximately 50% mortality occurs. Saltmarsh Caterpillar [Estigmene acrea (Drury)], (SMC)--Leaf Dip Assay
as §4

[5] = test system: Cabbage Looper [Trichoplusia ni (Hubner)]; assay: Cabbage Looper (CL) leaf dip assay; assay type: in vivo; settings: squash cotyledons, initial 0.1%
Description: as §5
(§10) Test compounds were diluted in a 50--50 acetone-water solution. Approximately 1×1.5 inch sections of curly dock (Rumex crispus) leaves were immersed in the test solution for 2-3 seconds. After drying on a wire screen, the leaves were placed in petri dishes containing a moistened piece of filter paper. Each dish was infested with 5 secondinstar saltmarsh larvae.
(§11) Mortality of the larvae was recorded 48 hours later. A piece of synthetic media was added to the dishes containing surviving larvae. The larvae were then observed for 5 additional days for delayed effects of the test compounds. Test concentrations ranged from 0.05% down to that at which approximately 50% mortality occurs. Cabbage Looper [Trichoplusia ni (Hubner)], (CL)
The effectiveness of the compounds was tested in the same manner as for the saltmarsh caterpillar with two exceptions. Cotyledons of hyzini squash (Calabacita abobrinha, were substituted for curly dock leaves and the initial test concentration was 0.1%. Tobacco Budworm [Heliothis virescens (Fabricius)], (TBW)
as §4

[6] = test system: Southern House Mosquito Larvae (Culex pipiens quinquefasciatus); assay: Southern House Mosquito larvae (M) assay, mortality 48 hours after treatment; assay type: in vivo; settings: third-instar larvae in aqueous solution, initial 1 ppm, read-out: LD50 M
Description: as §5
Tobacco budworms were tested in the same manner as the cabbage looper. Romaine lettuce (Latuca sativa) leaves provided the substrate. Southern House Mosquito Larvae (Culex pipiens quinquefasciatus), (M)
Ten third-instar larvae were placed in a six ounce wax paper cup containing 100 ml of an aqueous solution of the test compounds at a concentration of 1 ppm. The treated larvae were stored at 70° F. (21.5° C.) and mortality was recorded 48 hours after treatment. Two-Spotted Mite [Tetranychus urticae (Koch)], (2SM)
as §4

[7] = test system: Two-Spotted Mite [Tetranychus urticae (Koch)]; assay: Two-Spotted Mite (2SM) plant dip assay, mortality seven days later; assay type: in vivo; settings: for LD50 2SM Adults: adult mites; for LD50 2SM Eggs: eggs (nymphs hatching after treatment)
Text: as §1
Pinto bean plants (Phaseolus vulgaris) approximately 10 cm high were transplanted into sandy loam soil in three-inch clay pots. The plants were thoroughly infested with two-spotted mites of mixed ages and sexes. Twenty-four hours after infestation the plants were inverted and dipped for 2-3 seconds in 50--50 acetone-water solutions of the test compounds.
Mortality ratings for both adult mites and nymphs hatching after treatment were taken seven days later. Test concentrations ranged from 0.05% down to that at which 50% mortality occurs.
as §4

[8] = test system: Housefly [Musca domestica (Linn.)]; settings: topical, 48 h
Description: Housefly [Musca domestica (Linn.)], (HF)--Contact Residue Assay
Test compounds were diluted in acetone and aliquots were pipetted onto the bottom of 55×15 millimeter (mm) aluminum dishes. One ml of acetone containing 0.02% peanut oil was added to each dish to insure even spreading. After all solvents had evaporated the dishes were placed in cages each containing 25 one to two day old female houseflies. Each cage contained a sugar-water cotton plug for sustanence of the flies.
Mortality rates were recorded after 48 hours. Test levels ranged from 10 μ/25 .female. houseflies down to that at which approximately 50% mortality occurs.

[9] = test system: Tobacco Budworm [Heliothis virescens (Fabricius)]; settings: leaf dip, Romaine lettuce leaves
Description: Mortality of the larvae was recorded 48 hours later. A piece of synthetic media was added to the dishes containing surviving larvae. […] Test concentrations ranged from 0.05% down to that at which approximately 50% mortality occurs.

[10] = test system: Saltmarsh Caterpillar [Estigmene acrea (Drury)]; assay: Saltmarsh Caterpillar (SMC) leaf dip assay; assay type: in vivo; settings: curly dock leaves, second-instar larvae, 48 hours + 5 days
Description: as §5, §9, §10, §11, §4

SMILES	LD50 BBA [1]	LD50 GPA [2]	LD50 GR [3]	LD50 LB [4]	LD50 CL [5]	LC50 [6] [µg/mL]	LD50 2SM Adults [7]	LD50 2SM Eggs [7]	LD50 HF [8] [μg/25]	LD50 TBW [9]	LD50 SMC [10]
CCOP(=S)(OCC)SCC(=O)N1CCN(C(=O)OC)CC1 [Compound 3, 1-N-methoxycarbo-4-N-O,O-diethylphosphorodithioylacetyl piperazine]	.001%	.01%	> .1%	> .05%	> .1%	> 1	< .05%	< .05%	> 10	> .1%	
CCOC(=O)N1CCN(C(=O)CSP(=S)(OC)OC)CC1 [Compound 10, 1-N-ethoxycarbo-4-N-O,O-dimethylphosphorodithioylacetyl piperazine]	.0002%	.002%	> .1%	> .05%	> .1%	1 (≈ 2.81 µM)	.002%	.005%	> 10	> .05%	
CCOC(=O)N1CCN(C(=O)CSP(=S)(OC)OC)C(C)C1 (stereo not shown) [Compound 11, 1-N-ethoxycarbo-4-N'-O,O-dimethylphosphorodithioylacetyl-3-methyl piperazine]	.002%	.03%	> .1%	> .05%	> .1%	1 (≈ 2.7 µM)	< .05%	< .05%	> 10	.1%	.05%
CCOC(=O)N1CCN(C(=O)CSP(=S)(OCC)OCC)CC1 [Compound 12, 1-N-ethoxycarbo-4-N-O,O-diethylphosphorodithioylacetyl piperazine]	.001%	.008%	> .1%	> .05%	> .1%	> 1	.001%	.002%	> 10	> .1%	> .05%
CCOC(=O)N1CCN(C(=O)CSP(=S)(OCC)OCC)C(C)C1 (stereo not shown) [Compound 13, 1-N-ethoxycarbo-4-N'-O,O-diethylphosphorodithioylacetyl-3-methyl piperazine]	.003%	.008%	> .1%	> .05%	> .1%	> 1	.003%	.006%	> 10	> .05%	> .05%
CCOC(=O)N1CCN(C(=O)CSP(=O)(OCC)OCC)C(C)C1 (stereo not shown) [Compound 14, 1-N-carboethoxy-4-N'-O,O-diethylphosphoromonothioylacetyl-3-methyl piperazine]	.0005%	.005%	> .1%	> .05%	> .1%	> 1	< .05%	< .05%	> 10	> .1%	
COP(=S)(OC)SCC(=O)N1CCN(C(=O)OC(C)C)CC1 [Compound 18, 1-N-ispropoxycarbo-4-N-O,O-dimethylphosphorodithioylacetyl piperazine]	.0005%	.005%	> .1%	> .05%	> .1%	1 (≈ 2.7 µM)	< .05%	< .05%	> 10	> .1%	> .05%
CCOP(=S)(OCC)SCC(=O)N1CCN(C(=O)Oc2ccccc2)CC1 [Compound 23, 1-N-phenyloxycarbo-4-N-O,O-diethylphosphorodithioylacetyl piperazine]	.002%	.008%	> .1%	> .05%	.1%	1 (≈ 2.31 µM)	< .05%	< .05%	> 10	> .1%	
CCOP(=S)(OCC)SCC(=O)N1CCN(C(=O)SC)CC1 [Compound 27, 1-N-methylthiocarbo-4-N-O,O-diethylphosphorodithioylacetyl piperazine]	.001%	.01%	> .1%	> .05%	> .1%	> 1	< .05%	< .05%	> 10	> .1%	
COP(=S)(OC)SCC(=O)N1CCN(C(=O)SC(C)(C)C)CC1C (stereo not shown) [Compound 32, 1-N-carbo-t-butylthio-4-N'-O,O-dimethylphosphorodithioylacetyl-3-methyl piperazine]	> .05%					> 1	> .05%	> .05%	> 10	> .05%	
CCOP(=S)(OCC)SCC(=O)N1CCN(C(=O)SC(C)(C)C)CC1C (stereo not shown) [Compound 33, 1-N-carbo-t-butylthio-4-N'-O,O-diethylphosphorodithioylacetyl-3-methyl piperazine]	> .005%								> 10	> .05%	
